The structures appear in SMILES notation. Entries after “also recorded” stand apart in the source; their conditions may differ. Read-outs that look alike come from different tables or passages of the source. Bounds are passed on as bounds.

The test system of test [1] is human osteosarcoma U2OS cells. Nature of the test: Cytotoxicity/proliferation (MTS) assay for synergy with camptothecin. Type of test: cell-based. The following applies: 72 hours, NF-SDM at 3, 6 and 12 μM. The method, then:
U2OS cells (Developmental Therapeutics Program, NCI) were plated at 3×10^3 cells in a total volume of 100 μl per well in a 96 well plate and incubated at 37° C./5% CO2 for 24 hours prior to drug treatment. CPT and another drug of interest (both in DMSO stock solution) were prepared at double the desired concentration, and serially diluted in cells' media. After medium was aspirated off cells, 50 μl of CPT was plated down each column at four-fold dilutions in subsequent columns and 50 μl of another drug of interest was plated across rows, at two-fold dilutions in subsequent rows. A single drug dose response was also included for each drug tested, to which 50 μl of regular media was added to reconstitute a final volume of 100 μl in each well. Plates were further incubated for 72 hours and proliferation was assayed by adding 20 μl of 3-(4,5-dimethylthiazol-2-yl)-5-(3 carboxymethoxyphenyl)-2-(4-sulfophenyl)-2H-tetrazolium (MTS) Cell Titer Reagent (Promega) to each well. Plates were lightly mixed and placed back into the incubator until the appropriate color change occurred (˜1 hr), at which point plates were read on a Molecular Device Gemini fluorescence plate reader at an absorbance of 490 nm for cell viability. Raw data were plotted using GraphPad Prism and compared to each sample's control (GraphPad Software Inc.).

The target of the next test is recombinant Tdp1 (Homo sapiens, UniProt Q9NUW8). Nature of the test: Gel-based Tdp1 catalytic activity inhibition assay (5'-32P-labeled N14Y DNA substrate, denaturing PAGE). Format: biochemical. The following applies: for IC50: 0.2 nmol/L recombinant Tdp1, 1 nmol/L N14Y substrate, 15 min, room temperature. Here is the method: 5′-^32P-labeled DNA substrate (1 nmol/L; N14Y; 5′-[…]-pY-3′) was incubated with 0.2 nmol/L recombinant Tdp1 in the absence or presence of inhibitor for 15 min at room temperature in an assay buffer containing 1×PBS, pH 7.4, 80 mmol/L KCl and 0.01% Tween-20. Reactions were terminated by the addition of 1 volume of gel loading buffer [99.5% (v/v) formamide, 5 mmol/L EDTA, 0.01% (w/v) xylene cyanol, and 0.01% (w/v) bromophenol blue]. Samples were subjected to a 16% denaturing PAGE and gels were exposed after drying to a PhosphorImager screen (GE Healthcare). Gel images were scanned using a Typhoon 8600 (GE Healthcare) and densitometric analyses were performed using the ImageQuant software package (GE Healthcare).

The mark [2] stands for this setting: read-out: unable to inhibit Tdp1 / inactive at concentrations up to.

recombinant Tdp1, sequence (Q9NUW8 whole entry): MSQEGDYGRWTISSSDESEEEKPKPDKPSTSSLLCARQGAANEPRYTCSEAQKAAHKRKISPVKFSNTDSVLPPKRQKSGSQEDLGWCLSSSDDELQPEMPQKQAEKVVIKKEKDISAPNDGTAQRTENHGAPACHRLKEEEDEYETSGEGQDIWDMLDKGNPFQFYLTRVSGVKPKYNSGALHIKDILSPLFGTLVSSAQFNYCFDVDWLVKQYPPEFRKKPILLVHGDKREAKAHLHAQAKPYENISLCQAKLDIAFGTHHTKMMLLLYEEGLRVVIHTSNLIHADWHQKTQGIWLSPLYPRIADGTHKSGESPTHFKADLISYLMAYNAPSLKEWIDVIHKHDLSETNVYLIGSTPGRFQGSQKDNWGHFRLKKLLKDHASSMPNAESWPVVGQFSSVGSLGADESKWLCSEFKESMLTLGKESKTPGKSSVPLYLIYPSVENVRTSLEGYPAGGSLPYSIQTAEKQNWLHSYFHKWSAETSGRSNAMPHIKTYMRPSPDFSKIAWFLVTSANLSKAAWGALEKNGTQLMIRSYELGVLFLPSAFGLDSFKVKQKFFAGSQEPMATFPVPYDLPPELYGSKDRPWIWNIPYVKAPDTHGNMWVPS

In the case of `CCn1cc(C(=O)O)c(=O)c2cc(F)c(N3CCN(CNc4ccc(S(=O)(=O)Nc5nc(C)cc(C)n5)cc4)CC3)cc21` [NF-SDM], the “synergy with the TopI poison camptothecin (CPT) on cell growth/viability” value in test [1] is reported as “synergize with CPT; also recorded: synergistic effect; also recorded: acts synergistically”. Also, the “Tdp1 inhibitory activity (in words)” value at recombinant Tdp1 is “nanomolar range”. On recombinant Tdp1 (read-out: inhibit Tdp1 catalytic activity (IC50 Tdp1 inhibition)), the IC50 was determined as 0.005 µM.

On to `COc1c(N2CCNC(C)C2)c(F)cc2c(=O)c(C(=O)O)cn(C3CC3)c12` (stereo not shown) [gatifloxacin], for which the IC50 on recombinant Tdp1 (setting [2]) was greater than 333 µM. As to `CCn1cc(C(=O)O)c(=O)c2cc(F)c(N3CCNCC3)cc21` [norfloxacin], the IC50 at recombinant Tdp1 (setting [2]) is greater than 333 µM. As to `Cc1cc(C)nc(NS(=O)(=O)c2ccc(N)cc2)n1` [sulfadimidine], the “Tdp1 inhibitory activity (in words)” value on recombinant Tdp1 is “does not inhibit Tdp1”. Moreover, on recombinant Tdp1 (setting [2]), the IC50 was greater than 333 µM.
